Source: US12065416B2, “cGAS antagonist compounds” (IMMUNESENSOR THERAPEUTICS, INC., priority 2016, dated 2024)

Legend:
[1] = biological target: T1, recombinant cGAS (aa147-522) (Homo sapiens, UniProt Q8N884); assay: In vitro assay for inhibition of cGAS activity (ATP consumption, Kinase Glo); assay type: biochemical; conditions: 37° C. 20 minutes, read-out: Activity (Inhibition of cGAS enzyme activity in vitro, IC50)
T1 construct: recombinant cGAS (aa147-522); His6-SUMO (N, cleaved yes); made in house; host or cells: E. coli BL21/pLys
Method in brief: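 Human cGAS (aa147-522) at 1.5 ng/μL incubated with serially diluted compound at 37° C for 20 min; remaining ATP read by Kinase Glo luminescence. IC50 from percent ATP consumption plotted against log compound concentration.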

[2] = test system: cGAS activity in THP1 cells; assay: Cellular assay: ISRE-Gaussia luciferase reporter THP1 cells transfected with ISD (Interferon Stimulatory DNA); assay type: cell-based; conditions: Homo sapiens, THP-1; ISRE-Gaussia luciferase reporter THP1 cells transfected with 2 μg/mL ISD, 16 hours; read-out: THP1-ISD (Inhibition of cGAS activity in THP1 cells, IC50)
Protocol: (§1) A reporter THP1 cell line harboring a gene encoding Gaussia Luciferase under the control of 5 tandem repeats of interferon-stimulated response elements (ISRE) was used to test inhibition of cGAS activity by synthetic compounds in human cells. These cells were plated on 96-well plates at 0.3×10^6/well and incubated with various concentrations of compounds or DMSO for 5 min, followed by transfection of 2 μg/mL of ISD (Interferon Stimulatory DNA, a 45 bp DNA oligo) or mock transfected using lipofectamine 2000 (Life Technology) method, according to manufacturer's instructions. 16 hours later, 15 μL of the media from each well is transferred to a new plate, 50 μL of solution containing 50 mM Hepes-NaOH, 50 mM NaCl, 10 mM EDTA, 1 μM of coeleanterazine was added to each well and luminescence was measured immediately. Fold increase in luminescence compared to mock transfection is plotted against concentrations of each compound, and IC50 is calculated using Graphpad. To evaluate the specificity of a compound, the same procedure was performed except that cells were transfected with 2 μg/mL poly(I:C) or infected with Sendai Virus (SeV) at 50 Unit/mL, which are known to activate the RIG-I-MAVS pathway. A specific inhibitory compound should inhibit interferon induction by DNA but have minimal effect on poly(I:C) or Sendai virus induced interferon reporter gene expression.

[3] = test system: RIG-I-MAVS pathway; assay: Specificity assay: ISRE reporter THP1 cells infected with Sendai Virus (SeV); assay type: cell-based; conditions: Homo sapiens, THP-1; ISRE-Gaussia luciferase reporter THP1 cells infected with Sendai Virus (SeV) at 50 Unit/mL
Protocol: as §1

T1 sequence (Q8N884 147-522): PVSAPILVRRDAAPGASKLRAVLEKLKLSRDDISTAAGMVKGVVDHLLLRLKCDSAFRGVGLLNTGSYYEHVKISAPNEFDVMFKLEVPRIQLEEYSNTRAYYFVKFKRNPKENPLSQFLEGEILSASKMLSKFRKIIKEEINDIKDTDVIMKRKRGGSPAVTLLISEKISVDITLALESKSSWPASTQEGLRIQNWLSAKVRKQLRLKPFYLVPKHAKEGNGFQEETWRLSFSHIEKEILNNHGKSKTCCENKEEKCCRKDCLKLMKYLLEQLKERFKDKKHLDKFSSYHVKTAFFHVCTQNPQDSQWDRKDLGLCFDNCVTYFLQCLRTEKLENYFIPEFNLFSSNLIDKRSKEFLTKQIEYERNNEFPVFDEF

SMILES	IC50 [1] [nM]	IC50 [2] [nM]	IC50 [3] [nM]
COc1cc(/C=C2\SC(=O)N(C)C2=O)c(Br)cc1O [Ex28]	≤ 500	≤ 2500	≥ 10000
CCOc1cc(/C=C2\SC(=O)N(C)C2=O)c(Br)cc1O [Ex32]	≤ 500	≤ 2500	
C#CCOc1cc(/C=C2\SC(=O)N(C)C2=O)c(Br)cc1O [Ex33]	500 to 10000	2500 to 10000	
COc1cc(/C=C2\SC(=S)N(C)C2=O)c(Br)cc1O [Ex38]	≤ 500	2500 to 10000	
CCN1C(=O)S/C(=C\c2cc(OC)c(O)cc2Br)C1=O [Ex39]	500 to 10000	2500 to 10000	
COc1cc(/C=C2\Sc3ccccc3C2=O)c(Br)cc1O [Ex44]	500 to 10000	≤ 2500	
COc1cc(/C=C2\Sc3ncccc3C2=O)c(Br)cc1O [Ex45]	≤ 500	2500 to 10000	
CN1C(=O)S/C(=C\c2cc(OCc3ccncc3)c(O)cc2Br)C1=O [Ex53]	500 to 10000	≤ 2500	
CN1C(=O)S/C(=C\c2cc(OC(F)(F)F)c(O)cc2Br)C1=O [Ex57]	500 to 10000	≤ 2500	2500 to 10000
COc1cc(/C=C2\SC(=O)N(C)C2=O)c(Br)cc1NS(=O)(=O)c1cnc(N)s1 [Ex61]	500 to 10000	≤ 2500	
COc1cc(/C=C2\SC(=O)N(C)C2=O)c(Br)c(F)c1O [Ex63]	≤ 500	2500 to 10000	≥ 10000
COc1cc(/C=C2\SC(=O)N(C)C2=O)c(I)cc1O [Ex65]	≤ 500	2500 to 10000	≥ 10000
CN1C(=O)S/C(=C\c2cc(OCc3cccc4[nH]ccc34)c(O)cc2Br)C1=O [Ex67]	500 to 10000	2500 to 10000	
CN1C(=O)S/C(=C\c2cc(OCc3ccnc4[nH]cnc34)c(O)cc2Br)C1=O [Ex68]	≤ 500	≤ 2500	≥ 10000
O=C1/C(=C/c2cc(OC(F)(F)F)c(O)cc2Br)Sc2ncccc21 [Ex70]	500 to 10000	2500 to 10000	≥ 10000
Nc1ncncc1COc1cc(/C=C2\Sc3ncccc3C2=O)c(Br)cc1O [Ex73]	≤ 500	2500 to 10000	≥ 10000
COc1cc(/C=C2\Sc3ncccc3C2=O)c(Br)c(F)c1O [Ex75]	≤ 500	2500 to 10000	≥ 10000
CC(Oc1cc(/C=C2\SC(=O)N(C)C2=O)c(Br)cc1O)c1cncnc1N (stereo not shown) [Ex80]	≤ 500	2500 to 10000	≥ 10000
CN1C(=O)S/C(=C\c2cc(OCc3cnc(N)nc3)c(O)c(F)c2Br)C1=O [Ex81]	≤ 500	≤ 2500	≥ 10000
CN1C(=O)S/C(=C\c2cc(OCCc3cnc(N)nc3)c(O)cc2Br)C1=O [Ex82]	≤ 500	≤ 2500	

SMILES	IC50 [1] [nM]	IC50 [2] [nM]	IC50 [3] [nM]
CN1C(=O)S/C(=C\c2cc(OCC3CCCCC3)c(O)cc2Br)C1=O [Ex86]	500 to 10000	2500 to 10000	2500 to 10000
CC(C)C(=O)N1CCC(COc2cc(/C=C3\SC(=O)N(C)C3=O)c(Br)cc2O)CC1 [Ex87]	500 to 10000	2500 to 10000	≥ 10000
CN1C(=O)S/C(=C\c2cc(OCc3cccnc3)c(O)cc2Br)C1=O [Ex90]	≤ 500	2500 to 10000	
CN1C(=O)S/C(=C\c2cc(OCc3cn[nH]c3)c(O)cc2Br)C1=O [Ex92]	≤ 500	≤ 2500	≥ 10000
CN1C(=O)S/C(=C\c2cc(OCc3cnc(Cl)nc3)c(O)cc2Br)C1=O [Ex93]	≤ 500	2500 to 10000	≥ 10000
CN1C(=O)S/C(=C\c2cc(OCc3cccnc3)c(O)c(F)c2Br)C1=O [Ex106]	≤ 500	2500 to 10000	
CN1C(=O)S/C(=C\c2cc(OCc3cnc(Cl)nc3)c(O)c(F)c2Br)C1=O [Ex107]	500 to 10000	2500 to 10000	
Cc1nc(N)ncc1COc1cc(/C=C2\SC(=O)N(C)C2=O)c(Br)c(F)c1O [Ex108]	≤ 500	≤ 2500	≥ 10000
CCOc1cc(/C=C2\Sc3ncccc3C2=O)c(Br)cc1O [Ex112]	≤ 500	2500 to 10000	
O=C1/C(=C/c2cc(OCc3cccnc3)c(O)cc2Br)Sc2ncccc21 [Ex113]	≤ 500	2500 to 10000	
Cc1ncc(COc2cc(/C=C3\Sc4ncccc4C3=O)c(Br)cc2O)cn1 [Ex114]	≤ 500	2500 to 10000	
O=C1/C(=C/c2cc(OCc3cnc(Cl)nc3)c(O)cc2Br)Sc2ncccc21 [Ex115]	≤ 500	2500 to 10000	
Cc1nc(N)ncc1COc1cc(/C=C2\Sc3ncccc3C2=O)c(Br)cc1O [Ex116]	≤ 500	≤ 2500	
Nc1ncc(COc2cc(/C=C3\Sc4ncccc4C3=O)c(Br)cc2O)c(C2CC2)n1 [Ex117]	≤ 500	2500 to 10000	
CC(Oc1cc(/C=C2\Sc3ncccc3C2=O)c(Br)cc1O)c1cnc(N)nc1 (stereo not shown) [Ex122]	≤ 500	≤ 2500	≥ 10000
Nc1ncc(COc2cc(/C=C3\Sc4ncccc4C3=O)c(Br)c(F)c2O)cn1 [Ex123]	≤ 500	≤ 2500	≥ 10000
CC(Oc1cc(/C=C2\Sc3ncccc3C2=O)c(Br)c(F)c1O)c1cnc(N)nc1 (stereo not shown) [Ex124]	≤ 500	2500 to 10000	
CN1C(=O)S/C(=C\c2cc(OCc3ccc(N)nc3)c(O)cc2Br)C1=O [Ex131]	500 to 10000	2500 to 10000	2500 to 10000
CC(C)n1ccc(COc2cc(/C=C3\SC(=O)N(C)C3=O)c(Br)cc2O)cc1=O [Ex135]	500 to 10000	2500 to 10000	≥ 10000
CN1C(=O)S/C(=C\c2cc(OCc3cnc[nH]3)c(O)cc2Br)C1=O [Ex137]	500 to 10000	2500 to 10000	≥ 10000

SMILES	IC50 [1] [nM]	IC50 [2] [nM]	IC50 [3] [nM]
CN1C(=O)S/C(=C\c2cc(OCc3ncc(N)cn3)c(O)cc2Br)C1=O [Ex139]	500 to 10000	2500 to 10000	≥ 10000
CN1C(=O)S/C(=C\c2cc(OCc3cncnc3)c(O)cc2Br)C1=O [Ex140]	≤ 500	≤ 2500	≥ 10000
CN1C(=O)S/C(=C\c2cc(OCc3cncnc3N)c(O)cc2Br)C1=O [Ex141]	≤ 500	≤ 2500	≥ 10000
CN1C(=O)S/C(=C\c2cc(OCc3cnc(N)nc3)c(O)cc2Br)C1=O [Ex147]	≤ 500	≤ 2500	≥ 10000
CNc1ncc(COc2cc(/C=C3\SC(=O)N(C)C3=O)c(Br)cc2O)cn1 [Ex148]	≤ 500	≤ 2500	≥ 10000
CN1C(=O)S/C(=C\c2cc(OCc3cnc(NC4CC4)nc3)c(O)cc2Br)C1=O [Ex149]	500 to 10000	≤ 2500	≥ 10000
CN1C(=O)S/C(=C\c2cc(OCc3cnc(NCCO)nc3)c(O)c(F)c2Br)C1=O [Ex152]	≤ 500	≤ 2500	≥ 10000
COCCNc1ncc(COc2cc(/C=C3\SC(=O)N(C)C3=O)c(Br)c(F)c2O)cn1 [Ex153]	≤ 500	2500 to 10000	≥ 10000
CN1C(=O)S/C(=C\c2cc(OCc3cncnc3)c(O)c(F)c2Br)C1=O [Ex185]	≤ 500	2500 to 10000	
CN1C(=O)S/C(=C\c2cc(OCc3cnc(NCc4cccnc4)nc3)c(O)c(F)c2Br)C1=O [Ex189]	500 to 10000	2500 to 10000	
Cc1ncc(COc2cc(/C=C3\SC(=O)N(C)C3=O)c(Br)c(F)c2O)c(N)n1 [ExA5]	≤ 500	2500 to 10000	
CC(Oc1cc(/C=C2\Sc3ncccc3C2=O)c(Br)cc1O)c1cnc(NCCO)nc1 (stereo not shown) [ExA9]	≤ 500	2500 to 10000	
CN1C(=O)S/C(=C\c2cc(OCC(=O)c3cnc(N)nc3)c(O)c(F)c2Br)C1=O [ExA10]	500 to 10000	2500 to 10000	
Nc1ncc(COc2cc(/C=c3\sc4nccn4c3=O)c(Br)cc2O)cn1 [ExA11]	500 to 10000	≤ 2500	
CC(Oc1cc(/C=c2\sc3nccn3c2=O)c(Br)c(F)c1O)c1cnc(N)nc1 (stereo not shown) [ExA12]	500 to 10000	≥ 10000	
CC(Oc1cc(/C=C2\Sc3ncc(F)cc3C2=O)c(Br)c(F)c1O)c1cnc(N)nc1 (stereo not shown) [ExA13]	≤ 500	2500 to 10000	
CN1C(=O)S/C(=C\c2cc(OCc3cnc([S+](C)[O-])nc3N)c(O)c(F)c2Br)C1=O (stereo not shown) [ExA14]	≤ 500	≥ 10000	
CN1C(=O)S/C(=C\c2cc(OCc3cncnc3N)c(O)c(F)c2Br)C1=O [ExA17]	≤ 500	≥ 10000	
CC(Oc1cc(/C=C2\SC(=O)N(C)C2=O)c(Br)c(F)c1O)c1cncnc1N (stereo not shown) [ExA18]	500 to 10000	≥ 10000	
CN1C(=O)S/C(=C\c2cc(OCc3cnc(Cl)nc3N)c(O)c(F)c2Br)C1=O [ExA19]	≤ 500	2500 to 10000	
